In patent US20230416330A1, “Optimized GIP Peptide Analogues” (Antag Therapeutics ApS, priority 2019, published 2023):
Starred links: 1 amine or outer side, 2 acyl side, 3 side chain; linkers in the order of their positions; H or OH if unused. Non-standard residues stand in square brackets, D forms with d. Residues, ends and D or L forms follow the SMILES beside them. Groups on a side chain read outwards from the residue. *: point of attachment. C18 diacid = O=C(O)CCCCCCCCCCCCCCCCC(=O)*; C16 diacid = O=C(O)CCCCCCCCCCCCCCC(=O)*; γGlu = O=C(O)[C@H](CCC(=O)[*:2])N[*:1]; AEEA = NCCOCCOCC(=O)O; Aib = CC(C)(N)C(=O)O

Columns and labels:
[1] = target: T1, human GIP receptor (Homo sapiens, UniProt P48546); experiment: cAMP assay Alternative 1 (CisBio assay), GIPR antagonism; assay type: cell-based; details: for cAMP antagonism % inhib: Table 2B, % inhibition of Emax
T1 construct: host or cells: HEK-293 cells, transient transfection (Lipofectamine 2000), cDNA in pCMV-Script vector
T1 sequence (P48546 22-466): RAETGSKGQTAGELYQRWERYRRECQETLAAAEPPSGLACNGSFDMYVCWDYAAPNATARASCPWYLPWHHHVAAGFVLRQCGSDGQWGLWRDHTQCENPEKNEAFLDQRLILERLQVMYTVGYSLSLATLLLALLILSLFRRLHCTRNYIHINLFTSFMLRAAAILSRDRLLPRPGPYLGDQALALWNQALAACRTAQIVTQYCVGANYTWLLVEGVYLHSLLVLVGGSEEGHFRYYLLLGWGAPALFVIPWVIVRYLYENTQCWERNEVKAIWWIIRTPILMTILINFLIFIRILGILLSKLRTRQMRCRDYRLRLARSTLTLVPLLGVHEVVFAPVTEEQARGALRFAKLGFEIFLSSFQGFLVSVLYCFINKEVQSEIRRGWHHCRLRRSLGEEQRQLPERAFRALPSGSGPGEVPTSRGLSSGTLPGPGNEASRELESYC
How it was run: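 HEK293 cells transiently transfected with hGIPR, compounds diluted in HBSS/HEPES/pluronic/casein with 500 uM IBMX; decrease in intracellular cAMP read by HTRF (665/620 nm) and converted via cAMP standard curve. pIC50 from four-parameter fit; agonism tested separately after 30 min at 37° C.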

[2] = Physical stability: fibril formation in Thioflavin T (ThT) assay with agitation; assay type: physicochemical; details: 25° C., agitation
How it was run: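 Peptides at 1, 5, 7.5 or 15 mg/ml in 50 mM sodium phosphate pH 7.4 or in water adjusted to pH 7.4 with NaOH, filtered 0.22 μm, with ThT added. Wells held a 3 mm silica bead under 300 rpm orbital agitation at 25° C. Emission at 486 nm tracked continuously; lag time = 10% of transition above baseline.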

[3] = Solubility by visual inspection of peptide solutions; assay type: physicochemical; details: 1 mg/ml
How it was run: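 Peptides dissolved at 1, 5, 7.5 or 15 mg/ml in 50 mM sodium phosphate pH 7.4 or water adjusted to pH 7.4 with NaOH, with gentle mixing. Immediate solubility judged visually as a clear, colorless solution.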

SMILES: CC[C@H](C)[C@H](NC(=O)[C@H](CCCCN)NC(=O)[C@H](CCC(=O)O)NC(=O)[C@H](CCSC)NC(=O)C(C)(C)NC(=O)[C@@H](NC(=O)[C@H](CO)NC(=O)[C@H](Cc1ccc(O)cc1)NC(=O)[C@H](CCC(=O)O)NC(=O)[C@H](CO)NC(=O)[C@@H](NC(=O)[C@H](Cc1ccccc1)NC(=O)[C@@H](NC(=O)CNC(=O)[C@@H](N)CCC(=O)O)[C@@H](C)O)[C@@H](C)CC)[C@@H](C)CC)C(=O)N[C@@H](CCCCNC(=O)CCCCCCCCCCCCCCC(=O)O)C(=O)N[C@@H](CCC(N)=O)C(=O)N[C@@H](CCC(N)=O)C(=O)N[C@@H](CC(=O)O)C(=O)N[C@@H](Cc1ccccc1)C(=O)N[C@H](C(=O)N[C@@H](CCC(=O)O)C(=O)N[C@@H](Cc1c[nH]c2ccccc12)C(=O)N[C@@H](CC(C)C)C(=O)N[C@@H](CC(C)C)C(=O)N[C@@H](C)C(=O)N[C@@H](CCC(N)=O)C(=O)N[C@@H](CCCCN)C(=O)N1CCC[C@H]1C(=O)N[C@@H](CO)C(=O)N[C@@H](CO)C(=O)NCC(=O)N[C@@H](C)C(=O)N1CCC[C@H]1C(=O)N1CCC[C@H]1C(=O)N1CCC[C@H]1C(=O)N[C@@H](CO)C(=O)O)C(C)C [AT616] (H-EGTFISEYSI[Aib]MEKIK(C16 diacid)QQDFVEWLLAQKPSSGAPPPS-OH; N-terminus assumed)
- cAMP antagonism % inhib [1]: 100%
- Avr lag time (h) ([2]; 1 mg/ml, Na, MilliQ (7.7)): fnd (Fnd = fibrils not detected within experiment time (96 hours) with agitation.)
- Visual appearance ([3]; Na, MilliQ (7.7)): Clear

SMILES: CC[C@H](C)[C@H](NC(=O)[C@H](CO)NC(=O)[C@H](Cc1ccc(O)cc1)NC(=O)[C@H](CCC(=O)O)NC(=O)[C@H](CO)NC(=O)[C@@H](NC(=O)[C@H](Cc1ccccc1)NC(=O)[C@@H](NC(=O)CNC(=O)[C@@H](N)CCC(=O)O)[C@@H](C)O)[C@@H](C)CC)C(=O)N[C@@H](C)C(=O)N[C@@H](CC(C)C)C(=O)N[C@@H](CCC(=O)O)C(=O)N[C@@H](CCCCN)C(=O)N[C@H](C(=O)N[C@@H](CCCCNC(=O)COCCOCCNC(=O)COCCOCCNC(=O)CC[C@H](NC(=O)CCCCCCCCCCCCCCCCC(=O)O)C(=O)O)C(=O)N[C@@H](CCC(N)=O)C(=O)N[C@@H](CCC(N)=O)C(=O)N[C@@H](CCC(=O)O)C(=O)N[C@@H](Cc1ccccc1)C(=O)N[C@H](C(=O)N[C@@H](CCC(=O)O)C(=O)N[C@@H](Cc1c[nH]c2ccccc12)C(=O)N[C@@H](CC(C)C)C(=O)N[C@@H](CC(C)C)C(=O)N[C@@H](C)C(=O)N[C@@H](CCC(N)=O)C(=O)N[C@@H](CCCCN)C(=O)N1CCC[C@H]1C(=O)N[C@@H](CO)C(=O)N[C@@H](CO)C(=O)NCC(=O)N[C@@H](C)C(=O)N1CCC[C@H]1C(=O)N1CCC[C@H]1C(=O)N1CCC[C@H]1C(=O)N[C@@H](CO)C(=O)O)C(C)C)[C@@H](C)CC [AT693] (H-EGTFISEYSIALEKIK([AEEA-AEEA-γGlu-C18 diacid])QQEFVEWLLAQKPSSGAPPPS-OH; N-terminus assumed)
- cAMP antagonism % inhib [1]: 96%
- Avr lag time (h) ([2]; 1 mg/ml, TFA, Phosphate (7.4)): fnd (Fnd = fibrils not detected within experiment time (96 hours) with agitation.)
- Visual appearance ([3]; TFA, Phosphate (7.4)): Clear

SMILES: CC[C@H](C)[C@H](NC(=O)[C@H](CCCCN)NC(=O)[C@H](CC(=O)O)NC(=O)[C@H](CC(C)C)NC(=O)C(C)(C)NC(=O)[C@@H](NC(=O)[C@H](CO)NC(=O)[C@H](Cc1ccc(O)cc1)NC(=O)[C@H](CC(=O)O)NC(=O)[C@H](CO)NC(=O)[C@@H](NC(=O)[C@H](Cc1ccccc1)NC(=O)[C@@H](NC(=O)CNC(=O)[C@@H](N)CCC(=O)O)[C@@H](C)O)[C@@H](C)CC)[C@@H](C)CC)C(=O)N[C@@H](CCCCNC(=O)COCCOCCNC(=O)COCCOCCNC(=O)CC[C@H](NC(=O)CCCCCCCCCCCCCCCCC(=O)O)C(=O)O)C(=O)N[C@@H](CCC(N)=O)C(=O)N[C@@H](CCC(N)=O)C(=O)N[C@@H](CC(=O)O)C(=O)N[C@@H](Cc1ccccc1)C(=O)N[C@H](C(=O)N[C@@H](CCC(=O)O)C(=O)N[C@@H](Cc1c[nH]c2ccccc12)C(=O)N[C@@H](CC(C)C)C(=O)N[C@@H](CC(C)C)C(=O)N[C@@H](C)C(=O)N[C@@H](CCC(N)=O)C(=O)N[C@@H](CCCCN)C(=O)N1CCC[C@H]1C(=O)N[C@@H](CO)C(=O)N[C@@H](CO)C(=O)NCC(=O)N[C@@H](C)C(=O)N1CCC[C@H]1C(=O)N1CCC[C@H]1C(=O)N1CCC[C@H]1C(=O)N[C@@H](CO)C(=O)O)C(C)C [AT685] (H-EGTFISDYSI[Aib]LDKIK([AEEA-AEEA-γGlu-C18 diacid])QQDFVEWLLAQKPSSGAPPPS-OH; N-terminus assumed)
- cAMP antagonism % inhib [1]: 83%
- Avr lag time (h) ([2]; 1 mg/ml, TFA, Phosphate (7.4)): fnd (Fnd = fibrils not detected within experiment time (96 hours) with agitation.)
- Visual appearance ([3]; TFA, Phosphate (7.4)): Clear

SMILES: CC[C@H](C)[C@H](NC(=O)[C@H](CO)NC(=O)[C@H](Cc1ccc(O)cc1)NC(=O)[C@H](CC(=O)O)NC(=O)[C@H](CO)NC(=O)[C@@H](NC(=O)[C@H](Cc1ccccc1)NC(=O)[C@@H](NC(=O)CNC(=O)[C@@H](N)CCC(=O)O)[C@@H](C)O)[C@@H](C)CC)C(=O)N[C@@H](C)C(=O)N[C@@H](CCSC)C(=O)N[C@@H](CC(=O)O)C(=O)N[C@@H](CCCCN)C(=O)N[C@H](C(=O)N[C@@H](CCCCNC(=O)CCCCCCCCCCCCCCC(=O)O)C(=O)N[C@@H](CCC(N)=O)C(=O)N[C@@H](CCC(N)=O)C(=O)N[C@@H](CC(=O)O)C(=O)N[C@@H](Cc1ccccc1)C(=O)N[C@H](C(=O)N[C@@H](CC(N)=O)C(=O)N[C@@H](Cc1c[nH]c2ccccc12)C(=O)N[C@@H](CC(C)C)C(=O)N[C@@H](CC(C)C)C(=O)N[C@@H](C)C(=O)N[C@@H](CCC(N)=O)C(=O)N[C@@H](CCCCN)C(N)=O)C(C)C)[C@@H](C)CC [AT158, reference compound] (H-EGTFISDYSIAMDKIK(C16 diacid)QQDFVNWLLAQK-NH2; N-terminus assumed)
- cAMP antagonism pIC50 ([1]; Table 2A, HEK-293 cells transiently expressing hGIPR, agonist GIP1-42 at EC50): 7.8
- Avr lag time ([2]; 1 mg/ml, TFA, Phosphate (7.4)): <18 h
- Avr lag time ([2]; 5 mg/ml, TFA, MilliQ): <18 h
- Visual appearance ([3]; CI, MilliQ (7.9)): Turbid and Hazy

SMILES: CC[C@H](C)[C@H](NC(=O)[C@H](CCCCN)NC(=O)[C@H](CC(=O)O)NC(=O)[C@H](CC(C)C)NC(=O)C(C)(C)NC(=O)[C@@H](NC(=O)[C@H](CO)NC(=O)[C@H](Cc1ccc(O)cc1)NC(=O)[C@H](CC(=O)O)NC(=O)[C@H](CO)NC(=O)[C@@H](NC(=O)[C@H](Cc1ccccc1)NC(=O)[C@@H](NC(=O)CNC(=O)[C@@H](N)CCC(=O)O)[C@@H](C)O)[C@@H](C)CC)[C@@H](C)CC)C(=O)N[C@@H](CCCCNC(=O)CCCCCCCCCCCCCCC(=O)O)C(=O)N[C@@H](CCC(N)=O)C(=O)N[C@@H](CCC(N)=O)C(=O)N[C@@H](CC(=O)O)C(=O)N[C@@H](Cc1ccccc1)C(=O)N[C@H](C(=O)N[C@@H](CCC(=O)O)C(=O)N[C@@H](Cc1c[nH]c2ccccc12)C(=O)N[C@@H](CC(C)C)C(=O)N[C@@H](CC(C)C)C(=O)N[C@@H](C)C(=O)N[C@@H](CCC(N)=O)C(=O)N[C@@H](CCCCN)C(=O)N1CCC[C@H]1C(=O)N[C@@H](CO)C(=O)N[C@@H](CO)C(=O)NCC(=O)N[C@@H](C)C(=O)N1CCC[C@H]1C(=O)N1CCC[C@H]1C(=O)N1CCC[C@H]1C(=O)N[C@@H](CO)C(=O)O)C(C)C [AT666] (H-EGTFISDYSI[Aib]LDKIK(C16 diacid)QQDFVEWLLAQKPSSGAPPPS-OH; N-terminus assumed)
- cAMP antagonism % inhib [1]: 89%
- Avr lag time (h) ([2]; 1 mg/ml, TFA, Phosphate (7.4)): fnd (Fnd = fibrils not detected within experiment time (96 hours) with agitation.)
- Visual appearance ([3]; TFA, Phosphate (7.4)): Clear
